We go through two molecules from BindingDB's records for doi:10.1016/s0960-894x(03)00389-5 (National Institute On Drug Abuse-Intramural Research Program, 2003).

A short description of test [1]: Agonistic activity of quinpirole stimulation of mitogenesis in human dopamine D3 transfected CHO cells.
A short description of test [2]: Agonistic activity of quinpirole stimulation of mitogenesis in human Dopamine receptor D3 transfected CHO cells.

Molecules are shown by their SMILES. A value given as a limit tells only on which side of the number the result lay.

One may read the EC50 as the concentration at which the effect is half-maximal. `O=C(NC/C=C\CN1CCN(c2cccc(Cl)c2Cl)CC1)c1ccccc1` [N-{(Z)-4-[4-(2,3-Dichloro-phenyl)-piperazin-1-yl]-but-2-enyl}-benzamide] had an EC50 in test [1] greater than 10 µM.

For the molecule `O=C(NC/C=C/CN1CCN(c2cccc(Cl)c2Cl)CC1)c1ccccc1` [N-{(E)-4-[4-(2,3-Dichloro-phenyl)-piperazin-1-yl]-but-2-enyl}-benzamide], in test [2], the EC50 was greater than 10 µM.
